Where no end group is shown, it is not given here.
System: A. baumannii
Experiment: A. baumannii-infected zebrafish model (viability, CFU, clinical signs)
Type: in vivo
Experimental: The effect of octopromycin as an antibacterial agent was confirmed using zebrafish as an animal model.
A total of 72 zebrafish (average weight: 0.35±0.05 g) were divided into 3 groups: (1) non-infected control group treated with PBS and water, (2) A. baumannii-infected group, and (3) A. baumannii-infected and octopromycin-treated group (octopromycin-treated group).
Zebrafish was anesthetized using system water containing 160 μg/mL of tricaine (ethyl 3-aminobenzoate methane sulfonate). The control group ((1) group) was injected with 10 μL of nucleous free water (NFW) and 20 μL of PBS using a Hamilton® syringe. The A. baumannii-infected group ((2) group) was injected intraperitoneally with 10 μL of NFW, and the octopromycin-treated group ((3) group) was injected intraperitoneally with 10 μL of octopromycin (10 μg/fish). Then, A. baumannii was injected intraperitoneally (0 hpi) in the A. baumannii-infected group and the octopromycin-treated group at a dose of 20 μ1 (3.4×10^11 CFU) per fish, and then injected every 2 hpi until 48 hpi. To confirm the antibacterial effect of octopromycin, fish mortality was recorded every 12 hpi and the viability of each group was examined.
In addition, the number of bacteria (CFU) in the kidneys and spleens of the control group and the infected zebrafish was observed. 3 fish from each group at the 80% mortality stage of the A. baumannii-infected group was selected, and then the spleen and the kidney were collected, and individual spleen and kidney tissues from each zebrafish were homogenized in PBS and the homogenates were serially diluted and loaded onto an agar plate (TSA) to measure A. baumannii CFU.

In the case of “RRLIRTDTGPIIYDYFKDQLLKKGMVILRESMKNLKGM [octopromycin]”, the “viability of infected zebrafish” value (10 μg/fish intraperitoneally, 48 hours after A. baumannii infection) is reported as 37.5%, the “number of bacteria (CFU) in spleen and kidney” value (10 μg/fish, rank among the three groups) is reported as “second highest” and the “external clinical signs (hemorrhage)” value (10 μg/fish, vs A. baumannii-infected group) is reported as “less hemorrhage”.
